According to patent publication US20100029613A1, “TREATMENT AND PREVENTION OF EPILEPSY” (University of Rochester, priority 2004, published 2010):
“And” between values parts separate entries of the source, which are not always exact repeats. Equal values may be shown once. Read-outs that look alike come from different tables or passages of the source.

Experiments:
cultured astrocytes [1] = experiment: Astrocyte cell volume, confocal x-z line scans of calcein-loaded cultures; type: cell-based, rat
[2] = tested on: cultured rat cortical astrocytes; experiment: ATP-induced glutamate release, enzymatic fluorescence assay; type: cell-based; details: for glutamate release triggered by ATP agonists: 100 μM
cultured astrocytes [3] = experiment: Ca^2+ imaging in cultured astrocytes; type: cell-based, rat; details: absence of co-cultured neurons
[4] = tested on: astrocytic Ca^2+ signaling in hippocampal slices; type: cell-based, rat
hippocampus of adult rat = details: in vivo
[5] = tested on: PDSs in hippocampal slices evoked by 4-AP; experiment: 4-AP-evoked PDSs, field potential recording in hippocampal slices; type: cell-based, rat; details: for frequency and amplitude of PDSs: bath applied to slices with 4-AP induced seizures, NPPB 100 μM, FFA 100 μM
cultured astrocytes [6] = type: cell-based, rat
[7] = tested on: glutamate-permeable channel in cultured astrocytes; experiment: Whole-cell recording of ATP-induced current in cultured astrocytes; type: cell-based, rat; details: for effect on ATP-induced current: NaCl outside, BAPTA 10 mM in pipette, NPPB 100 μM, FFA 100 μM, gossypol 10 μM, OxATP 300 μM 1 h
[8] = tested on: glutamate-permeable channel in astrocytes in hippocampal slices; experiment: Whole-cell recording of ATP-induced inward current in astrocytes in hippocampal slices; type: cell-based, rat; details: for effect on ATP-induced inward current: 10 mM intracellular BAPTA, 100 μM NPPB in bath
[9] = tested on: astrocytes in hippocampal slices; type: cell-based, rat
astrocytes in suspension = type: cell-based, rat
cultured astrocytes [10] = experiment: HPLC analysis of amino acid release from perfused astrocyte cultures; type: cell-based, rat
[11] = tested on: cultured astrocytes from Cx43 KO mice; type: cell-based
[12] = tested on: cultured rat cortical astrocytes; experiment: Hypotonicity (swelling)-induced glutamate release, enzymatic fluorescence assay; type: cell-based
[13] = tested on: PDSs in hippocampal slices; experiment: PDSs across all experimental seizure models (4-AP, Mg^2+-free, bicuculline, penicillin, Ca^2+-free); type: cell-based, rat
[14] = tested on: interneurons in hippocampal slices; type: cell-based, rat
[15] = tested on: 4-AP induced astrocytic Ca^2+ signaling in cortex; experiment: In vivo two-photon imaging of 4-AP induced astrocytic Ca^2+ signaling; parameters: species or system mice
[16] = tested on: ATP-induced Ca^2+ waves in cortical astrocytes; experiment: In vivo two-photon imaging of ATP-induced astrocytic Ca^2+ waves; parameters: species or system mice
[17] = 214 mOsM, same concentrations as for ATP-induced release
[18] = NPPB 100 μM, FFA 100 μM, gossypol 10 μM
[19] = valproate 450 mg/kg, gabapentin 200 mg/kg, phenyloin 100 mg/kg i.p., 5-30 min after 4-AP
[20] = valproate 450 mg/kg, gabapentin 200 mg/kg, phenyloin 100 mg/kg i.p., iontophoretic ATP, non-epileptic mice

Molecule: 2′,3′-O-(4-benzoylbenzoyl)-ATP [Bz-ATP]
- increase in vertical sectional areas (cell swelling) (cultured astrocytes [1]; 100 μM agonist, 1 min): 1.35±1.05%
- glutamate release triggered by ATP agonists [2]: without effect

Molecule: Nc1ccncc1 [4-AP, 4-aminopyridine]
- Ca^2+ signaling in cultured astrocytes (cultured astrocytes [3]): promptly induced Ca^2+ signaling
- astrocytic Ca^2+ signaling (Ca^2+ oscillations) [4]: potently initiated astrocytic Ca^2+ signaling
- extracellular concentration of glutamate (hippocampus of adult rat): 6 to 10 µM
- increase in release of amino acid osmolytes (glutamate, aspartate, glutamine, taurine) (hippocampus of adult rat): 3-8 fold

Molecule: C[C@@](N)(C(=O)O)c1ccc(C(=O)O)cc1 [(S)-MCPG, (S)-Alpha-methyl-4-carboxy-phenylglycine]
- frequency and amplitude of PDSs compared with TTX alone [5]: failed to reduce

Molecule: NC(CCCP(=O)(O)O)C(=O)O (stereo not shown) [APV, 2-amino-5-phosphonovalerate]
- frequency and amplitude of PDSs compared with TTX alone [5]: highly significant reduction

Molecule: Nc1ncnc2c1ncn2[C@@H]1O[C@H](COP(=O)(O)OP(=O)(O)OP(=O)(O)O)[C@@H](O)[C@H]1O [ATP]
- decrease in fluorescence-dilution emission (cultured astrocytes [6]): 9.6±1.3%
- ATP-triggered inward current, amplitude [7]: 250±33 pA
- ATP-triggered inward current, average amplitude [7]: 177±37 pA and 138±36 pA
- increase in vertical sectional areas (cell swelling) (cultured astrocytes [1]): 5.19±0.66%
- volume increase (cultured astrocytes [1]): 5.2%
- ATP-induced inward current [8]: 254±31 pA
- glutamate release [2]: 2.49±0.21 fmol glutamate per cell
- duration of the fluo-4 signal increase [9]: 8.7 ± 1.4 s
- increase in the fluo-4 signal over baseline [9]: 131±13%
- increase in astrocytic cell volume (astrocytes in suspension): 3.5±0.6% and 3.0±0.5%
- increase in glutamate release (cultured astrocytes [10]): 2- to 5 fold
- glutamate release [11]: 3.02 fmol per cell
- glutamate release relative to astrocytes from wild-type littermates [11]: 90.7%

Molecule: O=C(O)CN(CC(=O)O)c1ccccc1OCCOc1ccccc1N(CC(=O)O)CC(=O)O [BAPTA, 1,2-bis (2-aminophenoxy) Ethane-N,N,N′,N′-tetraacetic acid]
- effect on ATP-induced current [7]: blocked
- effect on glutamate release evoked by hypoosmotic challenge [12, 17]: failed to affect
- effect on ATP-induced inward current [8]: attenuated

Molecule: CC(=O)OCOC(=O)CN(CC(=O)OCOC(C)=O)c1ccccc1OCCOc1ccccc1N(CC(=O)OCOC(C)=O)CC(=O)OCOC(C)=O [BAPTA/AM, 1,2-bis(2-aminophenoxy)ethane-N,N,N′,N′-tetraacetate (BAPTA)/AM]
- ATP-induced increase in vertical sectional areas attenuated to (cultured astrocytes [1]; ATP 100 μM, BAPTA/AM 20 μM preloaded): 1.63±0.73%
- effect on ATP-induced glutamate release [2]: attenuated the release
- effect on glutamate, aspartate, glutamine and taurine release evoked by ATP (cultured astrocytes [10]): inhibited

Molecule: CCOc1ccc(Nc2ccc(/C(=C3C=C/C(=[N+](/CC)Cc4cccc(S(=O)(=O)[O-])c4)C=C/3C)c3ccc(N(CC)Cc4cccc(S(=O)(=O)[O-])c4)cc3C)cc2)cc1.[Na+] [BBG, Brilliant Blue G]
- amplitude of the ATP-induced inward current ([8]; BBG 1 μM, P=0.8): 106.8±22.0%
- ATP-induced glutamate release ([2]; BBG 1 μM): 106.4±19.1 % of control

Molecule: N#Cc1cc2c(cc1[N+](=O)[O-])=NC(=O)C(=O)N=2 [CNQX, 6-cyano-7-nitroquinoxaline-2,3-dione]
- frequency and amplitude of PDSs compared with TTX alone [5]: significant decrease

Molecule: O=C(O)c1ccccc1Nc1cccc(C(F)(F)F)c1 [FFA, flufenamic acid]
- effect on ATP-induced current [7]: inhibited ATP-induced current
- frequency and amplitude of PDSs [5]: markedly reduced
- effect on glutamate release evoked by hypoosmotic challenge [12, 17]: decreased
- glutamate release in presence of anion channel blocker [2, 18]: 0.00±0.00 fmol per cell

Molecule: COc1ccc2c(c1)c(CC(=O)O)c(C)n2C(=O)c1ccc(Cl)cc1 [Indomethacin]
- effect on ATP-induced glutamate release [2]: did not reduce

Molecule: O=C(O)c1cc([N+](=O)[O-])ccc1NCCCc1ccccc1 [NPPB, 5-nitro-2-(3-phenylpropylamino) benzoic acid]
- effect on ATP-induced current [7]: inhibited ATP-induced current
- frequency and amplitude of PDSs [5]: markedly reduced
- effect on glutamate release evoked by hypoosmotic challenge [12, 17]: decreased
- effect on ATP-induced inward current [8]: attenuated
- glutamate release in presence of anion channel blocker [2, 18]: 0.22±0.14 fmol per cell
- reduction of glutamate release ([2]; after exposure to 10 μM ATP, NPPB 100 μM): 72.6±3.9%
- effect on glutamate, aspartate, glutamine and taurine release evoked by ATP (cultured astrocytes [10]): inhibited

Molecule: Nc1ncnc2c1ncn2[C@@H](C=O)O[C@@H](C=O)COP(=O)(O)OP(=O)(O)OP(=O)(O)O [OxATP, oxidized ATP]
- effect on ATP-induced current [7]: no significant effect
- effect on ATP-induced glutamate release [2]: did not significantly reduce

Molecule: Nc1c(S(=O)(=O)O)cc(Nc2ccc(Nc3nc(Cl)nc(Nc4cccc(S(=O)(=O)O)c4)n3)c(S(=O)(=O)O)c2)c2c1C(=O)c1ccccc1C2=O [Reactive Blue 2]
- effect on ATP-induced glutamate release [2]: blocked the release

Molecule: N[C@H](C(=O)O)[C@H](OCc1ccccc1)C(=O)O [TBOA, D,L-threo-beta-benzyloxyaspartate]
- frequency and amplitude of PDSs compared with TTX alone [5]: increased the frequency and amplitude of PDSs significantly
- effect on glutamate release evoked by hypoosmotic challenge [12, 17]: without effect
- effect on ATP-induced glutamate release [2]: without effect

Molecule: NC1=N[C@H](O)[C@H]2[C@H]3O[C@]4(O)O[C@@H]([C@@H](O)[C@@]2(N1)[C@@H]4O)[C@]3(O)CO [TTX, tetrodotoxin]
- decrease of relative frequency of PDSs compared with 4-AP alone [5]: 32±8%
- frequency and amplitude of 4-AP induced PDSs [5]: only slightly decreased
- frequency and amplitude of PDSs reduced by [5]: 20-35%
- frequency or amplitude of astrocytic Ca^2+ oscillations [4]: did not reduce
- frequency of PDSs reduced to [13]: 70-90 % of total

Molecule: O=c1ccn([C@@H]2O[C@H](COP(=O)(O)OP(=O)(O)OP(=O)(O)O)[C@@H](O)[C@H]2O)c(=O)[nH]1 [UTP]
- increase in vertical sectional areas (cell swelling) (cultured astrocytes [1]): 5.75±0.57%
- glutamate release triggered by ATP agonists [2]: roughly equivalent to that of ATP

Molecule: CO/C1=C\C(C)=C\[C@@H](C)[C@@H](O)[C@@H](C)C/C(C)=C/C=C/[C@H](OC)[C@@H]([C@@H](C)[C@@H](O)[C@H](C)[C@@]2(O)C[C@@H](O)[C@H](C)[C@@H](C(C)C)O2)OC1=O [bafilomycin A1]
- effect on glutamate release evoked by hypoosmotic challenge [12]: no effect
- effect on ATP-induced glutamate release [2]: no effect
- frequency of inhibitory postsynaptic currents [14]: 0.2 per sec

Molecule: NCC1(CC(=O)O)CCCCC1 [gabapentin]
- 4-AP-induced Ca^2+ signaling reduced by ([15]; mouse, in vivo): 55.6%
- ATP-evoked astrocytic Ca^2+ signaling (Ca^2+ waves) depressed by ([16]; mouse, in vivo): 53.8%

Molecule: Cc1cc2c(C(C)C)c(O)c(O)c(C=O)c2c(O)c1-c1c(C)cc2c(C(C)C)c(O)c(O)c(C=O)c2c1O [gossypol]
- glutamate release in presence of anion channel blocker [2]: 0.07±0.07 fmol per cell

Molecule: O=C1NC(=O)C(c2ccccc2)(c2ccccc2)N1 [phenyloin]
- 4-AP-induced Ca^2+ signaling reduced by [15, 19]: 45.5%
- ATP-evoked astrocytic Ca^2+ signaling (Ca^2+ waves) depressed by [16, 20]: 23.8%

Molecule: C/C=C(/C)C(=O)O[C@H]1C(C)=C2[C@H]([C@@H]1OC(=O)CCCCCCC)[C@@](C)(OC(C)=O)C[C@H](OC(=O)CCC)[C@@]1(O)[C@H]2OC(=O)[C@@]1(C)O [thapsigargin]
- effect on glutamate release evoked by hypoosmotic challenge [12, 17]: failed to affect
- effect on ATP-induced glutamate release [2]: attenuated the release

Molecule: CCCC(CCC)C(=O)O [valproate]
- 4-AP-induced Ca^2+ signaling reduced by [15, 19]: 69.7%
- ATP-evoked astrocytic Ca^2+ signaling (Ca^2+ waves) depressed by [16, 20]: 64.9%

Molecule: Nc1ncnc2c1ncn2[C@@H]1O[C@H](COP(=O)(O)CP(=O)(O)OP(=O)(O)O)[C@@H](O)[C@H]1O [αβ-meATP]
- glutamate release triggered by ATP agonists [2]: without effect

Molecule: methionine sulfoximine [MSO]
- effect on glutamate release evoked by hypoosmotic challenge [12]: increased glutamate release
- effect on ATP-induced glutamate release [2]: increased glutamate release
